Assay results: patent US20050142080A1, “Cosmetic or dermatological light protection formulation with a benzoxazole derivative” (Beiersdorf AG, priority 2001, published 2005)

Row | Compound | σ [mN/m] at 25° C. (surface tension) [mN/m]
1 | CCCCCCC(CO)CCCC (centres unmarked) [Butyl Octanol] | 26.9
2 | CCCCCCCCCCC(CO)CCCCCCCC (centres unmarked) [Octyldodecanol] | 28.9
